Patent US20080269173A1, “Composition for Stimulating Growth of Dermal Papilla Cells and Promoting Hair Follicle Growth Comprising Vitamin C Derivatives” (Trichogene Inc., priority 2005, published 2008)

Columns and labels:
[1] = system: human anagen hair follicle; experiment: In vitro growth of isolated human anagen hair follicles (organ culture, length measurement); type: cell-based; conditions: 0.05 mM and 0.25 mM, 9 days, Williams E medium; P<0.05
Method: Biopsy samples were obtained from a […] region of scalp of a patient with androgenic alopecia during the hair transplantation operation with their approval in the Kyungpook National University hospital. The hair follicles were isolated and incubated according to the known method (Philpott et al., J Cell Sci. 97:463-471, 1990).
The anagen hair follicles were isolated from the scalp under a stereoscopic binocular microscope. Upper one third of the isolated anagen hair follicles were cut out, and lower two third of them were incubated at 37° C. in a Williams E medium (Sigma, USA) under a 5% CO2 atmosphere. The hair follicles were incubated for 9 days in a medium including Asc 2-P, and then their length was measured using a stereoscopic microscope.

dermal papilla cells [2] = experiment: Growth of cultured dermal papilla cells (MTT method); type: cell-based, human; conditions: 0.25 mM, 5 days
Method: The dermal papilla was isolated from a bulb of the severed hair follicles under the binocular microscope, and then transferred into a tissue culture dish. The dermal papilla was cultured at 37° C. for 5 days under a 5% CO2 atmosphere in the DMEM medium supplemented with penicillin (100 U/ml), streptomycin (100 μg/ml) and 20% heat-inactivated fetal bovine serum (FBS, Hyclone, USA), and then subcultured in the same condition. The dermal papilla cells were kept in the DMEM including 10% FBS after the subculture. The secondary subcultured cells were used in the present invention.
The dermal papilla cells were incubated overnight at a density of 5,000 cells/well in a 96-well plate containing a DMEM medium supplemented with 10% FBS. The medium was then exchanged to the DMEMs including varied concentrations of Asc 2-P and incubated for 5 days, and then the cell number was measured using a MTT method.

dermal papilla cells [3] = experiment: RT-PCR gene expression (mRNA) in dermal papilla cells; type: cell-based, human; conditions: 0.25 mM, 5 days
Method: The dermal papilla cells were incubated for 5 days in a medium including 0.25 mM Asc 2-P, and then their RNA was isolated using a TRIzol reagent (Gibco-BRL, Grand Island, N.Y.). cDNA was synthesized from the RNA using a cDNA synthesis kit containing superscript II reverse transcriptase and random hexamer (Gibco-BRL). The cDNA was amplified with sets of gene-specific primers (Table 1).
Gene expression levels of IGF-1 (insulin like growth factor 1), HGF (hepatocyte growth factor), VEGF (vascular endothelial growth factor), KGF (keratinocyte growth factor), collagen I, collagen III, versican and alkaline phosphatase (ALP) were analyzed in the present invention.

[4] = system: versican in the hair follicle; experiment: Immunostaining of versican in hair follicle; type: cell-based, human; conditions: 0.1 mM and 1 mM, 5 days
Method: The hair follicles were incubated for 5 days in the media treated with 0.1 mM and 1 mM Asc 2-P, and then their immunostaining experiments were conducted against versican.

human dermal fibroblast = conditions: Hata et al., 1988; cited from earlier work
osteoblast = conditions: Hata et al., 1988; cited from earlier work
[5] = aqueous solution, general culture conditions; cited from earlier work

SMILES	growth (length) of hair follicle [1]	growth of dermal papilla cells (cell number, MTT) (dermal papilla cells [2]; 0.05 mM, 1 mM and 5 mM, P<0.05)	growth of dermal papilla cells relative to the control group (dermal papilla cells [2]; MTT) [times]	HGF mRNA (dermal papilla cells [3])	IGF-1 mRNA (dermal papilla cells [3])	KGF mRNA (dermal papilla cells [3])	VEGF mRNA (dermal papilla cells [3])	alkaline phosphatase (ALP) mRNA (dermal papilla cells [3])	collagen I mRNA (dermal papilla cells [3])	collagen III mRNA (dermal papilla cells [3])	versican mRNA (dermal papilla cells [3])	expression of versican in the hair follicle (immunostaining) [4]	growth of human dermal fibroblast (human dermal fibroblast)	growth of osteoblast (osteoblast)	stability [5]
O=C1O[C@H]([C@@H](O)CO)C(O)=C1OP(=O)(O)O [Asc 2-P, L-ascorbic acid-2-phosphate magnesium]	significantly grown	significantly stimulated growth	2.4	no effect	increased	no effect	no effect	increased	no effect	no effect	increased	increased	stimulates growth	stimulates growth	more stable than the vitamin C
O=C1O[C@H]([C@@H](O)CO)C(O)=C1O [vitamin C, L-ascorbic acid]													stimulates growth	stimulates growth	rapidly oxidized and degraded
